Here are results for 5 compounds from patent US7282210B2, “Process for the in vitro culture of different stages of tissular parasites” (priority 1993, dated 2007).

Test [1] deals with cultured amastigote forms of L. mexicana, L. amazonensis, L. braziliensis and L. chagasi. Kind of test: direct leishmanicidal effect of nitric oxide on cultured amastigote forms. It is filed as cell-based, Leishmania. From the text: (§1) Also, one of the mechanisms leading to lysis of the amastigote forms was elucidated.
The culture kinetics as well as the differentiation of the amastigote forms into promastigote forms were monitored after this treatment.

Test [2] has as its system cis-aconitase. Kind of test: enzymatic activities of amastigote forms treated or not treated with NO. It is filed as biochemical, Leishmania.
Source text: as §1

For test [3], the system named is untreated promastigote forms of L. mexicana. Kind of test: growth inhibition by pentamidine, untreated promastigote forms. To be noted: Leishmania mexicana, read-out: IC50 (concentration of pentamidine for which a growth inhibition of 50% is observed). Format: cell-based. From the text:
(§2) In the stage of putting in contact, the parasitic forms are used at concentrations of 10^6 parasite/ml and the activity of the medicaments is studied at increasing concentrations.
(§3) Promastigote forms of L. mexicana resistant to pentamidine are obtained by medicamentous pressure in vitro and have a resistance index of about 30. They are then transformed according to the culture method already described into corresponding cultured amastigote forms which, after determination of the IC50, retain the resistance to pentamidine induced in the promastigote forms.
(§4) For the promastigotes the value is 27 and for the amastigotes it is 26.

Test [4] relates to resistant amastigote forms of L. mexicana. Kind of test: growth inhibition by pentamidine, resistant amastigote forms. Format: cell-based.
Source text: as §2, §3, §4

For test [5], the system named is resistant promastigote forms of L. mexicana. Kind of test: growth inhibition by pentamidine, resistant promastigote forms. It is filed as cell-based. Conditions: Leishmania mexicana, read-out: IC50 (concentration of pentamidine for which a growth inhibition of 50% is observed).
Source text: as §2, §3, §4

Setting [6] is: medium containing alpha-ketoglutaric acid (3 mM) and cis-aconitate (3 mM) added immediately to parasites treated with NO.

Turning to `O=C(O)CCC(=O)C(=O)O` [alpha-ketoglutaric acid], the “growth of NO-treated amastigote forms” value in test [1] (setting [6]) was “restore the growth of the amastigote forms”.
`[N]=O` [NO, nitric oxide]: the “effect on cis-aconitase activity” value in test [2] was “inhibition of cis-aconitase”. Besides, in test [1] (gaseous NO (1%) carried by nitrogen (99%), pulsed for 15 minutes), the “leishmanicidal effect on cultured amastigote forms” value was “leishmanicidal activity”.
For `O=S(=O)([O-])[O-].[Fe+2]` [FeSO4], the “growth of NO-treated amastigote forms” value in test [1] (medium containing 100 μm of FeSO4 added immediately to parasites treated with NO) was “restore the growth of the amastigote forms”.
On to `N=C(N)c1ccc(OCCCCCOc2ccc(C(=N)N)cc2)cc1` [pentamidine], for which the IC50 in test [3] is 1.2 ± 0.05 µM; in test [4] (Leishmania mexicana, read-out: IC50 (concentration of pentamidine for which a growth inhibition of 50% is observed)), 32 ± 1 µM; in test [5], 33 µM. The “resistance index (IC50 of the resistant strain/IC50 of the untreated strain)” value in test [4] (amastigotes) stood at 26.
With `O=C(O)/C=C(/CC(=O)O)C(=O)O` [cis-aconitate], in test [1] (setting [6]), the “growth of NO-treated amastigote forms” value is on record as “restore the growth of the amastigote forms”.
